Results from patent US20220087960A1, “Oral Pharmaceutical Immediate Release Composition” (Aardvark Therapeutics Inc., priority 2020, published 2022).
Where two headings read alike, the source gives them in different places.

Assays:
[1] = system: C57BL/6 DIO mice; conditions: 60 μmol/kg (26.8 mg/kg) once daily, 28-day period; cited from earlier work
[2] = Maximum tolerated dose / LD50 study, single oral gavage, 14-day observational period (Example 7); conditions: both, Sprague Dawley, rat, in vivo
Description: (§1) The drugs were administered to Sprague Dawley rats with a 14-day observational period. Twenty-four Male Sprague Dawley (SD) rats and 24 female SD rats were purchased from Envigo at 8-10 weeks of age. The DA group had four dose levels (120, 360, 1000, and 2000 mg/kg, single administration by oral gavage), 3 rats per sex, 6 animals in total per dose level; and the DB group: four dose levels (120, 360, 1000, and 2000 mg/kg, single administration by oral gavage), 3 rats per sex, 6 animals in total per dose level. The estimated median lethal dose (LD50) was determined by a nonlinear regression [model: Y=100/(1+10^(LogEC50-X)), Hill slope=1.0) to calculate LD50.

[3] = system: Sprague Dawley rats; test: in vivo; conditions: rat, po; for Mortality rate: both, 14 day
Description: as §1

[4] = system: rodent obesity models; conditions: cited from earlier work
[5] = system: normal C57BL/6 mice; conditions: oral 60 μmol/kg (26.8 mg/kg); cited from earlier work
[6] = system: male SD rats; test: Single oral dose food intake study, 24-hour observational period (Example 6, first in vivo study); set-up: species or system rat
Description: This example compares efficacy of DA versus DB in food inhibition and body weight control. As a background, according to Avau et al., Sci. Rep. […] In our first in vivo study, 45 male SD rats (purchased from Envigo at 8-10 weeks of age) were divided into three groups (15 in each group), which were administered a single oral dose of vehicle (distilled water), 26.8 mg/kg of DB, or 23.1 mg/kg of DA respectively, with a 24-hour observational period, to compare the efficacy of DB versus DA in reducing food intake. Table 4. Mean cumulative food intake during 24-h observational period

[7] = system: healthy volunteers; conditions: intragastric administration, cited from earlier work; for nutrient volume tolerance / satiation: 1 μmol/kg DB
[8] = system: male C57BL/6N DIO mice; test: 56-day BID treatment, food consumption and body weight in DIO mice (Example 6, second in vivo study); set-up: species or system mouse
Description: In a second in vivo study, 45 male C57BL/6N DIO mice (purchased from Envigo at 18 weeks of age, fed with high-fat diet) were divided into three groups (15 in each group), which were orally administered vehicle (distilled water), 26.8 mg/kg of DB, or 23.1 mg/kg of DA respectively, twice daily (BID), with a 56-day treatment period to compare the efficacy of DB versus DA in food intake reduction and body weight control. Briefly, once weekly, the food weight for each cage was recorded at 0 hour and then 24 hours later, permitting calculation of food consumption for that 24-hour interval. In addition, starting from Day 0, the mice were weighed three times weekly (every 2-3 days).

## CC[N+](CC)(CC(=O)Nc1c(C)cccc1C)Cc1ccccc1.O=C([O-])c1ccccc1 [DB, benzyl-[2-(2,6-dimethylanilino)-2-oxoethyl]-diethylazanium benzoate]
[1]
  body weight as compared to vehicle: induced a decrease in body weight
[2]
  LD50 at 14 day: 784 mg/kg
  MTD at 14 day: 360 mg/kg
[3]; 120 mg/kg
  Mortality rate: 0%
[3]; 360 mg/kg
  Mortality rate: 0%
[3]; 1000 mg/kg
  Mortality rate: 66.7%
[3]; 2000 mg/kg
  Mortality rate: 100%
[3]; female, 120 mg/kg
  No. of animals died within 24 h post dosing: 0
[3]; female, 360 mg/kg
  No. of animals died within 24 h post dosing: 0
[3]; female, 1000 mg/kg
  No. of animals died within 24 h post dosing: 3
[3]; female, 2000 mg/kg
  No. of animals died within 24 h post dosing: 3
[3]; male, 120 mg/kg
  No. of animals died within 24 h post dosing: 0
[3]; male, 360 mg/kg
  No. of animals died within 24 h post dosing: 0
[3]; male, 1000 mg/kg
  No. of animals died within 24 h post dosing: 1
[3]; male, 2000 mg/kg
  No. of animals died within 24 h post dosing: 3
[4]
  food intake: suppressed food intake
  weight gain: inhibited weight gain
[5]
  gastric emptying rate: significantly inhibited gastric emptying rate
[6]; single oral dose (DA 23.1 mg/kg, DB 26.8 mg/kg), 0-2 h, N = 15
  Mean cumulative food intake 0-2 h: 4.8 gram
[6]; single oral dose (DA 23.1 mg/kg, DB 26.8 mg/kg), 0-4 h, N = 15
  Mean cumulative food intake 0-4 h: 7.7 gram
[6]; single oral dose (DA 23.1 mg/kg, DB 26.8 mg/kg), 0-6 h, N = 15
  Mean cumulative food intake 0-6 h: 10.9 gram
[6]; single oral dose (DA 23.1 mg/kg, DB 26.8 mg/kg), 0-8 h, N = 15
  Mean cumulative food intake 0-8 h: 13.8 gram
[6]; single oral dose (DA 23.1 mg/kg, DB 26.8 mg/kg), 0-24 h, N = 15
  Mean cumulative food intake 0-24 h: 20.6 gram
[6]; single oral dose, all indicated time intervals
  cumulative food intake as compared with vehicle: reduced cumulative food intake during all the indicated time intervals as compared with vehicle
[7]; listed as Denatonium benzoate
  nutrient volume tolerance: reduced nutrient volume tolerance
  satiation: increased satiation post meal
[7]
  nutrient volume tolerance: decreased nutrient volume tolerance
  satiation: increased satiation
  hunger ratings: decreased hunger ratings
  inter-digestive gastric motility: attenuated inter-digestive gastric motility
[8]; DIO mice on high-fat diet, 26.8 mg/kg DB or 23.1 mg/kg DA BID
  body weight gain as compared to vehicle treatment: less body weight gain as compared to vehicle treatment
[8]; DIO mice, BID oral (DA 23.1 mg/kg, DB 26.8 mg/kg), Day 0
  Mean food consumption per animal for 24-h interval, Day 0: 2.5 gram
[8]; DIO mice, BID oral (DA 23.1 mg/kg, DB 26.8 mg/kg), Day 7
  Mean food consumption per animal for 24-h interval, Day 7: 1.8 gram
[8]; DIO mice, BID oral (DA 23.1 mg/kg, DB 26.8 mg/kg), Day 14
  Mean food consumption per animal for 24-h interval, Day 14: 2.6 gram
[8]; DIO mice, BID oral (DA 23.1 mg/kg, DB 26.8 mg/kg), Day 21
  Mean food consumption per animal for 24-h interval, Day 21: 2.9 gram
[8]; DIO mice, BID oral (DA 23.1 mg/kg, DB 26.8 mg/kg), Day 28
  Mean food consumption per animal for 24-h interval, Day 28: 2.5 gram
[8]; DIO mice, BID oral (DA 23.1 mg/kg, DB 26.8 mg/kg), Day 35
  Mean food consumption per animal for 24-h interval, Day 35: 2.5 gram
[8]; DIO mice, BID oral (DA 23.1 mg/kg, DB 26.8 mg/kg), Day 42
  Mean food consumption per animal for 24-h interval, Day 42: 2.0 gram
[8]; DIO mice, BID oral (DA 23.1 mg/kg, DB 26.8 mg/kg), Day 49
  Mean food consumption per animal for 24-h interval, Day 49: 2.4 gram
[8]; DIO mice, BID oral (DA 23.1 mg/kg, DB 26.8 mg/kg), Day 56
  Mean food consumption per animal for 24-h interval, Day 56: 2.5 gram
[8]; DIO mice, BID oral (DA 23.1 mg/kg, DB 26.8 mg/kg), day 0
  Mean normalized body weight (% of baseline), study day 0: 100.0 % of baseline
[8]; DIO mice, BID oral (DA 23.1 mg/kg, DB 26.8 mg/kg), day 4
  Mean normalized body weight (% of baseline), study day 4: 100.5 % of baseline
[8]; DIO mice, BID oral (DA 23.1 mg/kg, DB 26.8 mg/kg), day 7
  Mean normalized body weight (% of baseline), study day 7: 99.7 % of baseline
[8]; DIO mice, BID oral (DA 23.1 mg/kg, DB 26.8 mg/kg), day 9
  Mean normalized body weight (% of baseline), study day 9: 99.4 % of baseline
[8]; DIO mice, BID oral (DA 23.1 mg/kg, DB 26.8 mg/kg), day 11
  Mean normalized body weight (% of baseline), study day 11: 99.0 % of baseline
[8]; DIO mice, BID oral (DA 23.1 mg/kg, DB 26.8 mg/kg), day 14
  Mean normalized body weight (% of baseline), study day 14: 99.3 % of baseline
[8]; DIO mice, BID oral (DA 23.1 mg/kg, DB 26.8 mg/kg), day 16
  Mean normalized body weight (% of baseline), study day 16: 98.0 % of baseline
[8]; DIO mice, BID oral (DA 23.1 mg/kg, DB 26.8 mg/kg), day 18
  Mean normalized body weight (% of baseline), study day 18: 97.9 % of baseline
[8]; DIO mice, BID oral (DA 23.1 mg/kg, DB 26.8 mg/kg), day 21
  Mean normalized body weight (% of baseline), study day 21: 99.5 % of baseline
[8]; DIO mice, BID oral (DA 23.1 mg/kg, DB 26.8 mg/kg), day 23
  Mean normalized body weight (% of baseline), study day 23: 100.5 % of baseline
[8]; DIO mice, BID oral (DA 23.1 mg/kg, DB 26.8 mg/kg), day 25
  Mean normalized body weight (% of baseline), study day 25: 100.3 % of baseline
[8]; DIO mice, BID oral (DA 23.1 mg/kg, DB 26.8 mg/kg), day 28
  Mean normalized body weight (% of baseline), study day 28: 100.2 % of baseline
[8]; DIO mice, BID oral (DA 23.1 mg/kg, DB 26.8 mg/kg), day 30
  Mean normalized body weight (% of baseline), study day 30: 100.5 % of baseline
[8]; DIO mice, BID oral (DA 23.1 mg/kg, DB 26.8 mg/kg), day 32
  Mean normalized body weight (% of baseline), study day 32: 102.8 % of baseline
[8]; DIO mice, BID oral (DA 23.1 mg/kg, DB 26.8 mg/kg), day 34
  Mean normalized body weight (% of baseline), study day 34: 103.6 % of baseline
[8]; DIO mice, BID oral (DA 23.1 mg/kg, DB 26.8 mg/kg), day 36
  Mean normalized body weight (% of baseline), study day 36: 104.1 % of baseline
[8]; DIO mice, BID oral (DA 23.1 mg/kg, DB 26.8 mg/kg), day 39
  Mean normalized body weight (% of baseline), study day 39: 104.7 % of baseline
[8]; DIO mice, BID oral (DA 23.1 mg/kg, DB 26.8 mg/kg), day 41
  Mean normalized body weight (% of baseline), study day 41: 105.3 % of baseline
[8]; DIO mice, BID oral (DA 23.1 mg/kg, DB 26.8 mg/kg), day 46
  Mean normalized body weight (% of baseline), study day 46: 106.0 % of baseline
[8]; DIO mice, BID oral (DA 23.1 mg/kg, DB 26.8 mg/kg), day 49
  Mean normalized body weight (% of baseline), study day 49: 107.8 % of baseline
[8]; DIO mice, BID oral (DA 23.1 mg/kg, DB 26.8 mg/kg), day 51
  Mean normalized body weight (% of baseline), study day 51: 107.8 % of baseline
[8]; DIO mice, BID oral (DA 23.1 mg/kg, DB 26.8 mg/kg), day 53
  Mean normalized body weight (% of baseline), study day 53: 107.4 % of baseline
[8]; DIO mice, BID oral (DA 23.1 mg/kg, DB 26.8 mg/kg), day 56
  Mean normalized body weight (% of baseline), study day 56: 108.4 % of baseline
[8]; DIO mice, BID oral, 56-day treatment
  food consumption compared to vehicle-dosed mice: Lower food consumption was also seen on Days 0, 7, 28, 35, 42 and 49
